According to article PMC12461331, “Screening of Medicines for Malaria Venture Open Boxes Identifies Potent SARS-CoV‑2 Papain-like Protease (PL^pro) Inhibitors” (ACS Omega, 2025):
pEC50: −log10 of the molar value. In brackets after ≈: the same amount, converted by molar mass. Several values for one entry are separate records, joined by “and”; a condition that tells them apart may be missing. Equal values may be shown once. Where a name gives a salt, the structure may show the parent alone. Read-outs that look alike come from different tables or passages of the source.

Key:
SARS-CoV-2 [1] = experiment: microbe, parasite or virus in culture; conditions: for AC50: Severe acute respiratory syndrome coronavirus 2, HeLa-ACE2, read-out: Log AC50 (converted)
in vitro [2] = conditions: human, uninfected HeLa-ACE2 cells
SARS-CoV-2 [3] = conditions: for CoV2 Efficacy (delta S0:Sinf): HeLa-ACE2; for Data Mode: Hela-ACE2 % Positive SARS-CoV-2; for S0 / Sinf / nHill: Hela-ACE2 % Positive SARS-CoV-2, curve fit; for SI (average CC50/average EC50): supplement summary
physchem [4] = conditions: 25 °C, kinetic from dmso stock
[5] = female, BALB/c, mouse, 1 h, 2 μM, pH 7.4
[6] = Human liver microsomal stability assay; conditions: human, liver microsomes, pH 7.4
in vitro [7] = conditions: PAMPA
HeLa-ACE2 cells [8] = experiment: cells; conditions: Homo sapiens; for AC50: HeLa-ACE2, read-out: Log AC50 (converted)
HeLa-ACE2 cells [9] = conditions: for Data Mode / S0 / Sinf / nHill: Hela-ACE2 CoV-2 Total Cell count; for S0 / Sinf / nHill: curve fit; for HeLa-ACE2 Total Cell Efficacy (Sinf, note + or -): infected HeLa-ACE2 total cell count
[10] = Mouse liver microsomal stability assay; conditions: CD1, mouse, liver microsomes, pH 7.4
physchem [11] = conditions: pH 7.4
in vitro [12] = conditions: human, microsomes, pH 7.4
PL^pro = PL^pro (Severe acute respiratory syndrome coronavirus 2, UniProt P0DTD1); conditions: 20 μM compound, 5 μM enzyme, average of triplicates with SD
in vitro [13] = conditions: CD1, mouse, microsomes, pH 7.4
[14] = test system: uninfected HeLa-ACE2 cells; conditions: Hela-ACE2 Uninfected Cell Toxicity; for qAC50: relation in column qAC50 Mode, unit not given; for S0 / Sinf / nHill: curve fit
Plasma stability = conditions: female, BALB/c, mouse, plasma, pH 7.4
[15] = Severe acute respiratory syndrome coronavirus 2, HeLa-ACE2, read-out: SARS-CoV-2 EC50, HeLa-ACE2 cells, average of triplicates
[16] = Severe acute respiratory syndrome coronavirus 2, HeLa-ACE2, read-out: qAC50, Hela-ACE2 % Positive SARS-CoV-2, relation in column qAC50 Mode, unit inferred
[17] = uninfected HeLa-ACE2 CC50, supplement summary
[18] = uninfected HeLa-ACE2 CC50, uninfected HeLa-ACE2 cells, average of triplicates
[19] = HeLa-ACE2, read-out: HeLa-ACE2 Total cells EC50
[20] = Severe acute respiratory syndrome coronavirus 2, HeLa-ACE2, read-out: CoV-2 EC50
[21] = Severe acute respiratory syndrome coronavirus 2, HeLa-ACE2, read-out: qAC50

Structure (SMILES)	AC50 (SARS-CoV-2 [1]) [µM]	CC50 at 24 h (in vitro [2]; [17]) [µM]	CoV2 Efficacy (delta S0:Sinf) (SARS-CoV-2 [3])	Data Mode (SARS-CoV-2 [3])	solubility kinetic at 24 h (physchem [4]; pH 2, aqueous buffer) [mg/mL]	solubility kinetic at 24 h (physchem [4]; pH 7.4, aqueous buffer) [mg/mL]	plasma stability remaining 60 min [5] [%]	half-life at 0.5 μM [6] [min]	Papp at 5 h, 10 μM (in vitro [7]) [nm/s]	pEC50 (HeLa-ACE2 cells [8]; [19])	pEC50 (HeLa-ACE2 cells [8]; HeLa-ACE2, read-out: qAC50)	Data Mode (HeLa-ACE2 cells [9])	half-life at 0.5 μM [10] [min]	chromatographic logD (physchem [11])	microsomal CLint at 0.5 μM (in vitro [12]) [µL/min/mg]	ΔT m (PL^pro)	microsomal CLint at 0.5 μM (in vitro [13]) [µL/min/mg]	Data Mode [14]	qAC50 [14]	half-life at 2 μM (Plasma stability) [h]	further results
C[C@@H](c1cccc2ccccc12)N1CCC(C(=O)NCc2ccncc2)CC1 (racemic) [Compound 10]	> 9.61	> 39.8	103.533	decreasing (weakly active)	> 0.0173	> 0.031	97.19	36.7	10.1	< 5.02	< 5.02	inactive	25.3	3.32	75.6	4.65 °C and 4.6 ± 0.1 °C	110	inactive	> 3.984e-5		pEC50 (SARS-CoV-2 [1]; [15]): < 5.02; pEC50 (SARS-CoV-2 [1]; [16]): < 5.02; CC50 at 24 h (in vitro [2]; [18]): > 39.8 µM; S0 (SARS-CoV-2 [3]): 3.533; Sinf (SARS-CoV-2 [3]): -100; nHill (SARS-CoV-2 [3]): 4
C[C@@H](c1cccc2ccccc12)N1CCC(C(=O)NCC2CCCCC2)CC1 (racemic) [Compound 11]		> 39.8		inactive	> 0.0232	0.00615 (≈ 16.2 µM)	47.10	13.2	3.5	< 5.02	< 5.02	inactive	7.84	4.8	209	0.90 ± 0.07 °C	354	inactive	> 3.984e-5	5.25	pEC50 (SARS-CoV-2 [1]; [15]): < 5.02; pEC50 (SARS-CoV-2 [1]; [16]): < 5.02; CC50 at 24 h (in vitro [2]; [18]): > 39.8 µM
Cc1ccc(CNC(=O)C2CCN([C@@H](C)c3cccc4ccccc34)CC2)cc1 (stereo in doubt) [Compound 5]	> 9.61	> 39.8	105.451	decreasing (weakly active)	> 0.025	0.00862 (≈ 22.3 µM)	33.79	18.2	6.7	< 5.02	< 5.02	inactive	9.48	4.55	152	5.57 °C and 5.57 ± 0.09 °C	292	inactive	> 3.984e-5	3.98	pEC50 (SARS-CoV-2 [1]; [15]): < 5.02; pEC50 (SARS-CoV-2 [1]; [16]): < 5.02; CC50 at 24 h (in vitro [2]; [18]): > 39.8 µM; S0 (SARS-CoV-2 [3]): 5.451; Sinf (SARS-CoV-2 [3]): -100; nHill (SARS-CoV-2 [3]): 2.548
COc1ccc(CNC(=O)[C@@H]2CCN([C@H](C)c3cccc4ccccc34)C2)cc1 (stereo in doubt) [Compound 18]					> 0.0252	> 0.0198	56.69	13.1	5.6				4.76	4.24	212		582			7.7	
Cc1cccc(/C=N/Nc2cc(N3CCOCC3)nc(OCCc3ccccn3)n2)c1 [Apilimod, reference compound]	0.0256	5.71	96.257	decreasing						< 5.62	< 5.62	inactive						decreasing	5.705e-6		pEC50 (SARS-CoV-2 [1]; [20]): 7.59; pEC50 (SARS-CoV-2 [1]; [21]): 7.59; AC50 at 24 h (in vitro [2]): 5.7 µM; S0 (SARS-CoV-2 [3]): 0.02088; Sinf (SARS-CoV-2 [3]): -96.2358; nHill (SARS-CoV-2 [3]): 1.796; SI (average CC50/average EC50) (SARS-CoV-2 [3]): 222.534; S0 [14]: -7.369; Sinf [14]: -100; nHill [14]: 1.671
COc1ccc(CNC(=O)C2CCN(Cc3cccc4ccccc34)CC2)cc1 [Compound 1]					> 0.0249	> 0.0218	43.36	23.7	10				18.9	4.18	117	0.40 ± 0.08 °C	146			4.44	
COc1ccc(CC(=O)NC2CCN([C@@H](C)c3cccc4ccccc34)CC2)cc1 [Compound 7]					> 0.0248	> 0.0159	95.21	13.5	10.3				7.33	4.27	205		378			116	
COc1ccc(CNC(=O)[C@@H]2CCN([C@@H](C)c3cccc4ccccc34)C2)cc1 [Compound 15]					> 0.0239	> 0.0191	79.94	16.1	4.6				3.74	4.24	173	0.40 ± 0.06 °C	742			19.3	
COc1ccc(CNC(=O)[C@H]2CCN([C@H](C)c3cccc4ccccc34)C2)cc1 [Compound 16]					> 0.0246	> 0.0195	88.71	10.9	5.3				10.4	4.24	254	0.40 ± 0.08 °C	267			28.9	
COc1ccc(C[C@H](N)C(=O)N[C@H]2[C@@H](O)[C@H](n3cnc4c(N(C)C)ncnc43)O[C@@H]2CO)cc1 [Puromycin dihydrochloride, reference compound]	0.381	0.578	109.643	decreasing						5.94	5.94	decreasing						decreasing	5.784e-7		pEC50 (SARS-CoV-2 [1]; [20]): 6.42; pEC50 (SARS-CoV-2 [1]; [21]): 6.42; AC50 at 24 h (in vitro [2]): 0.578 µM; S0 (SARS-CoV-2 [3]): 10.0167; Sinf (SARS-CoV-2 [3]): -99.6259; nHill (SARS-CoV-2 [3]): 4; SI (average CC50/average EC50) (SARS-CoV-2 [3]): 1.518; AC50 (HeLa-ACE2 cells [8]): 1.14 µM; S0 (HeLa-ACE2 cells [9]): -17.6223; Sinf (HeLa-ACE2 cells [9]): -98.1852; nHill (HeLa-ACE2 cells [9]): 4; HeLa-ACE2 Total Cell Efficacy (Sinf, note + or -) (HeLa-ACE2 cells [9]): 4.000; S0 [14]: -1.04; Sinf [14]: -99.1112; nHill [14]: 3.073
CCC(CC)COC(=O)[C@H](C)N[P@](=O)(OC[C@H]1O[C@@](C#N)(c2ccc3c(N)ncnn23)[C@H](O)[C@@H]1O)Oc1ccccc1 [Remdesivir, reference compound]	0.0952	2.15	101.769	decreasing						6.99	6.99	increasing						decreasing	2.1501e-6		pEC50 (SARS-CoV-2 [1]; [20]): 7.02; pEC50 (SARS-CoV-2 [1]; [21]): 7.02; AC50 at 24 h (in vitro [2]): 2.15 µM; S0 (SARS-CoV-2 [3]): 1.9121; Sinf (SARS-CoV-2 [3]): -99.8572; nHill (SARS-CoV-2 [3]): 1.898; SI (average CC50/average EC50) (SARS-CoV-2 [3]): 22.589; AC50 (HeLa-ACE2 cells [8]): 0.102 µM; S0 (HeLa-ACE2 cells [9]): -15.3429; Sinf (HeLa-ACE2 cells [9]): 34.6571; nHill (HeLa-ACE2 cells [9]): 2.142; HeLa-ACE2 Total Cell Efficacy (Sinf, note + or -) (HeLa-ACE2 cells [9]): 2.142; S0 [14]: 13.7985; Sinf [14]: -53.8717; nHill [14]: 1.539
